Experimental data from ChEMBL document CHEMBL4130624, “Optimization of 1,4-Oxazine β-Secretase 1 (BACE1) Inhibitors Toward a Clinical Candidate” (J Med Chem, 2018).

What was measured:
[1] = test system: Cavia porcellus; experiment: Cardiotoxicity in anesthetized guinea pigs assessed as drug level causing QTcB prolongation dosed up to 10 mg/kg, iv administered over a period of 5 min at 15 min interval by ECG analysis; format: toxicity, organism-based; conditions: guinea pig, in vivo
[2] = test system: Rattus norvegicus; experiment: Toxicity in Sprague-Dawley rat assessed as induction of pigmentation at 225 mg/kg/day, po administered via gavage for 1 month; format: organism-based; conditions: in vivo
[3] = molecular target: hERG (KCNH2) (Homo sapiens, UniProt Q12809); experiment: Inhibition of human ERG expressed in HEK293 cells assessed as reduction in outward potassium current at 3 uM at holding potential was -80 mV after 5 mins by patch clamp assay; format: cell-based; conditions: HEK293 cells that express hERG
Sequence of hERG (KCNH2) (Q12809 whole entry): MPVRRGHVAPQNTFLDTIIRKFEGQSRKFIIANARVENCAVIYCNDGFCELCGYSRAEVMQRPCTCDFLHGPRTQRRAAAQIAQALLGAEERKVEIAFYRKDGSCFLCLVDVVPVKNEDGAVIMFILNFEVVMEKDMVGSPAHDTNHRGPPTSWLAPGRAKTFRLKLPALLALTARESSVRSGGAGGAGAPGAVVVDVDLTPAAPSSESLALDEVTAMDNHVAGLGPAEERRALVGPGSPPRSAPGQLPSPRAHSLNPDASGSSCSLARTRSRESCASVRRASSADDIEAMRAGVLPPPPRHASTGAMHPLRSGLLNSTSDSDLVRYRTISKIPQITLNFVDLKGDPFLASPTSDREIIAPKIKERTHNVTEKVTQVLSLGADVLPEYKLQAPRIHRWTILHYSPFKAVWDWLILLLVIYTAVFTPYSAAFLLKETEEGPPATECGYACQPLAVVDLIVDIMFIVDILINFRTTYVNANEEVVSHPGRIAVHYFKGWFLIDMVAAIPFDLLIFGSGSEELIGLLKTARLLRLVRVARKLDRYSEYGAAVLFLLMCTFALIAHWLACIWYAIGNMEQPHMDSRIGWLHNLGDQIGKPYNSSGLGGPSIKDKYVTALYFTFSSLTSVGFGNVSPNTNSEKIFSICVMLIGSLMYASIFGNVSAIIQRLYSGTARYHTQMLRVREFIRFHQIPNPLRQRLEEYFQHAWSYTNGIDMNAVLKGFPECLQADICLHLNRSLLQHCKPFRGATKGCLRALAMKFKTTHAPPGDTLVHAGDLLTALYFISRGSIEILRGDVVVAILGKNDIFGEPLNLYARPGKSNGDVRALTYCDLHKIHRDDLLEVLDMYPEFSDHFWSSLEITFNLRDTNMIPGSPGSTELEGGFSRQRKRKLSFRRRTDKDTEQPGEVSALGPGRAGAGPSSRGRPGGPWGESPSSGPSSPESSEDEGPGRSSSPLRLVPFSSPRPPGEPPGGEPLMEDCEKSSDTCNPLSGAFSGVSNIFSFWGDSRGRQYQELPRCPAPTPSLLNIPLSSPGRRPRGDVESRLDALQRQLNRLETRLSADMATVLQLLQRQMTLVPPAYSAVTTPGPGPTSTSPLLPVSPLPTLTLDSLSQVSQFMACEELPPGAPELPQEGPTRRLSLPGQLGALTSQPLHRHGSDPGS

[4] = molecular target: Cytochrome P450 2C8 (Homo sapiens, UniProt P10632); experiment: Reversible inhibition of recombinant human CYP2C8 by fluorescence-based assay; format: ADME
Sequence of Cytochrome P450 2C8 (P10632 whole entry): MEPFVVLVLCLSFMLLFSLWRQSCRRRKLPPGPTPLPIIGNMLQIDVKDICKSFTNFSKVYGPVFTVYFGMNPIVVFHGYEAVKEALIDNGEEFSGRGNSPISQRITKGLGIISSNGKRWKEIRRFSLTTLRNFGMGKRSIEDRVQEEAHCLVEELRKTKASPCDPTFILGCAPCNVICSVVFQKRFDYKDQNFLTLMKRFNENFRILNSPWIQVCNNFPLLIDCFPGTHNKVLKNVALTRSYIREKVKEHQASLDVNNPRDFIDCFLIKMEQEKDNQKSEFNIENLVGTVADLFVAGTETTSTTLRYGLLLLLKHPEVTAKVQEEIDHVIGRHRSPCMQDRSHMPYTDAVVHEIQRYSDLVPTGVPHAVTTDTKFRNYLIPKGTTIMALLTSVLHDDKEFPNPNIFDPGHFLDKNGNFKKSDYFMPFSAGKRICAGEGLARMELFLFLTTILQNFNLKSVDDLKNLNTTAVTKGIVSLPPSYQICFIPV

[5] = test system: Rattus norvegicus; experiment: Toxicity in Sprague-Dawley rat assessed as drug tolerability at 25 to 75 mg/kg/day, po measured after 1 month repeated dosing; format: organism-based; conditions: in vivo
[6] = Safety index, ratio of NOAEL for cardiotoxicity in anesthetized guinea pigs assessed as free drug level causing QTcB prolongation dosed up to 10 mg/kg, iv administered over a period of 5 min at 15 mins interval by ECG analysis to EC50 for Antialzheimer activity in po dosed Beagle dog assessed as reduction in amyloid beta (1 to 40) levels measured after 1 hr post dose by ELISA; format: toxicity, organism-based; conditions: guinea pig, in vivo
[7] = test system: Canis familiaris; experiment: Toxicity in beagle dog assessed as induction of ataxia at 70 to 250 mg/kg/day, po qd for 1 week; format: organism-based, Canis lupus familiaris; conditions: in vivo, 168 h
[8] = Half life in Sprague-Dawley rat at 2.5 mg/kg, iv administered as bolus dose by LC-MS/MS analysis; format: ADME, organism-based; conditions: in vivo
[9] = AUC (0 to 24 hrs) in male Sprague-Dawley rat at 75 mg/kg, po measured after 1 month repeated dosing by LC-MS/MS analysis; format: ADME, organism-based; parameters: time < 24 hr, dose 75 mg/kg, route oral; conditions: in vivo
[10] = test system: Canis familiaris; experiment: Toxicity in male beagle dog assessed as reduction in RBC parameters at 250 mg/kg/day, po qd for 1 month; format: organism-based, Canis lupus familiaris; conditions: in vivo
[11] = Ratio of drug level in kidney to plasma of Sprague-Dawley rat at 10 mg/kg, po; format: ADME, organism-based
[12] = molecular target: Mu-type opioid receptor (Homo sapiens) (UniProt P35372); experiment: Inhibition of recombinant human mu-type opioid receptor at 10 uM after 5 mins
Sequence of Mu-type opioid receptor (Homo sapiens) (P35372 whole entry): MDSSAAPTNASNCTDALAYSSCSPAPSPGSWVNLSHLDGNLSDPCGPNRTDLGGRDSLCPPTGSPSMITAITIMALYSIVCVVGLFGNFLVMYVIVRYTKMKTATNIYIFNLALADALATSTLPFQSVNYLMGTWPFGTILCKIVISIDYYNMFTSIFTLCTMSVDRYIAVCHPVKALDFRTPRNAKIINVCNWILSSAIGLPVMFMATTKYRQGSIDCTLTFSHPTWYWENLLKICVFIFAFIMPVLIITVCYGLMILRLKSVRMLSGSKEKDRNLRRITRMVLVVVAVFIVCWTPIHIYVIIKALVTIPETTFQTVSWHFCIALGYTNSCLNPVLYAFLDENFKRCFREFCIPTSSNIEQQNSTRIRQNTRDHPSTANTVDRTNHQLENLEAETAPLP

[13] = test system: Canis familiaris; experiment: Toxicity in Beagle dog assessed as induction of behavioural changes at 0.63 to 20 mg/kg, po qd for 1 day; format: organism-based, Canis lupus familiaris; conditions: in vivo, 24 h
[14] = test system: Canis familiaris; experiment: Toxicity in male beagle dog assessed as induction of pigmentation at 20 to 250 mg/kg/day, po qd for 1 month; format: organism-based, Canis lupus familiaris; conditions: in vivo
[15] = test system: Rattus norvegicus; experiment: Toxicity in Sprague-Dawley rat assessed as induction of tissue damage at 225 mg/kg/day, po administered via gavage for 1 month; format: organism-based; conditions: in vivo
[16] = test system: Canis familiaris; experiment: Toxicity in Beagle dog assessed as induction of behavioural changes at 0.63 to 20 mg/kg, po qd for 6 days; format: organism-based, Canis lupus familiaris; conditions: in vivo, 144 h
[17] = test system: Rattus norvegicus; experiment: Toxicity in Sprague-Dawley rat assessed as effect on body weight at 225 mg/kg/day, po administered via gavage for 1 month; format: organism-based; conditions: in vivo
[18] = AUC (0 to 24 hrs) in female Sprague-Dawley rat at 75 mg/kg, po measured after 1 month repeated dosing by LC-MS/MS analysis; format: ADME, organism-based; parameters: time < 24 hr, dose 75 mg/kg, route oral; conditions: in vivo
[19] = test system: Salmonella typhimurium; experiment: Mutagenicity in Salmonella typhimurium TA98 up to 500 ug/ml in presence of rat liver S9 fraction by Ames 2 assay; format: toxicity, organism-based; conditions: salmonella enterica subsp. enterica serovar typhimurium
[20] = Cmax in Swiss mouse at 10 mg/kg, po administered as bolus dose by LC-MS/MS analysis; format: ADME, organism-based; parameters: dose 10 mg/kg, route oral; conditions: in vivo
[21] = test system: Canis familiaris; experiment: Toxicity in Beagle dog assessed as drug tolerability at 0.63 to 20 mg/kg, po qd for 6 days; format: organism-based, Canis lupus familiaris; conditions: in vivo, 144 h
[22] = Drug metabolism in human liver microsomes at 1 uM after 15 mins in presence of NADPH by HPLC-MS/MS analysis; format: ADME, microsome; conditions: read-out: Drug metabolism
[23] = test system: Canis familiaris; experiment: Toxicity in Beagle dog assessed as drug tolerability up to 20 mg/kg, po; format: organism-based, Canis lupus familiaris; conditions: in vivo
[24] = AUC (0 to infinity) in Beagle dog at 10 mg/kg, po administered as bolus dose by LC-MS/MS analysis; format: ADME, organism-based, Canis lupus familiaris; parameters: dose 10 mg/kg, time infinity, route oral; conditions: in vivo
[25] = Fraction unbound in human plasma at 5 uM after 4.5 hrs by HPLC-MS/MS method based rapid equilibrium dialysis; format: ADME, cell-free
[26] = Cmax in Sprague-Dawley rat at 10 mg/kg, po administered as bolus dose by LC-MS/MS analysis; format: ADME, organism-based; parameters: dose 10 mg/kg, route oral; conditions: in vivo
[27] = test system: Rattus norvegicus; experiment: Toxicity in Sprague-Dawley rat assessed as phospholipidosis at 225 mg/kg/day, po administered via gavage for 1 month followed by 1 month recovery period; format: organism-based; conditions: in vivo
[28] = test system: THP-1; experiment: Induction of phospholipidosis in human THP1 cells at 21 uM after […] by ethidiumbromide-based fluorescence assay relative to control; format: cell-based; conditions: thp-1, 21 µM
[29] = test system: Canis familiaris; experiment: Toxicity in male beagle dog at 20 to 250 mg/kg/day, po qd for 1 month followed by 1 month recovery period; format: organism-based, Canis lupus familiaris; conditions: in vivo
[30] = test system: Canis familiaris; experiment: Systemic clearance in Beagle dog at 1 mg/kg, iv administered as bolus dose by LC-MS/MS analysis relative to liver blood flow; format: ADME, organism-based, Canis lupus familiaris; conditions: in vivo
[31] = Ratio of fEC50 for antialzheimer activity in po dosed Beagle dog assessed as reduction in amyloid beta (1 to 40) levels to Inhibition of BACE1 (1 to 454 residues) (unknown origin); format: functional
[32] = Tmax in Beagle dog at 10 mg/kg, po administered as bolus dose by LC-MS/MS analysis; format: ADME, organism-based, Canis lupus familiaris; conditions: in vivo
[33] = Volume of distribution at steady state in Sprague-Dawley rat at 2.5 mg/kg, iv administered as bolus dose by LC-MS/MS analysis; format: ADME, organism-based; conditions: in vivo, read-out: Vdss
[34] = molecular target: Beta-secretase 1 (Homo sapiens, UniProt P56817); experiment: Inhibition of BACE1 (1 to 454 residues) (unknown origin) using APP derived polypeptide harboring Lys-Met/Asn-Leu mutation as substrate by FRET assay
Sequence of Beta-secretase 1 (P56817 whole entry, the tested form may be a part): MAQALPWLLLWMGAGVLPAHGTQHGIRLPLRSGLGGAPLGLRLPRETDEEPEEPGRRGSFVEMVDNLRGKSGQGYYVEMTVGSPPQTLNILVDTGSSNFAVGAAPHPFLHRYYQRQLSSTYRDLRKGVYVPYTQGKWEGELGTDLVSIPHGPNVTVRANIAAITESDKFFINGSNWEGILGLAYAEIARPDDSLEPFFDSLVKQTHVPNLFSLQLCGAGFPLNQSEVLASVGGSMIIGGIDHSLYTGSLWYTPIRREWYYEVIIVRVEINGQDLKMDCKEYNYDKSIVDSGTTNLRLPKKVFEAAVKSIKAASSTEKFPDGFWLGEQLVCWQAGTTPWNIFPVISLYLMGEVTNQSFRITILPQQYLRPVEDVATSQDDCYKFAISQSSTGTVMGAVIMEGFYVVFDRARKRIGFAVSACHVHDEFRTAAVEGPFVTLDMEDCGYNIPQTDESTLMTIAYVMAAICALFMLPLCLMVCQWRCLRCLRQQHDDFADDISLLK

[35] = test system: Salmonella typhimurium; experiment: Mutagenicity in Salmonella typhimurium TA98 up to 500 ug/ml in absence of rat liver S9 fraction by Ames 2 assay; format: toxicity, organism-based; conditions: salmonella enterica subsp. enterica serovar typhimurium
[36] = molecular target: Cytochrome P450 1A2 (Homo sapiens, UniProt P05177); experiment: Reversible inhibition of recombinant human CYP1A2 by fluorescence-based assay; format: ADME
Sequence of Cytochrome P450 1A2 (P05177 whole entry): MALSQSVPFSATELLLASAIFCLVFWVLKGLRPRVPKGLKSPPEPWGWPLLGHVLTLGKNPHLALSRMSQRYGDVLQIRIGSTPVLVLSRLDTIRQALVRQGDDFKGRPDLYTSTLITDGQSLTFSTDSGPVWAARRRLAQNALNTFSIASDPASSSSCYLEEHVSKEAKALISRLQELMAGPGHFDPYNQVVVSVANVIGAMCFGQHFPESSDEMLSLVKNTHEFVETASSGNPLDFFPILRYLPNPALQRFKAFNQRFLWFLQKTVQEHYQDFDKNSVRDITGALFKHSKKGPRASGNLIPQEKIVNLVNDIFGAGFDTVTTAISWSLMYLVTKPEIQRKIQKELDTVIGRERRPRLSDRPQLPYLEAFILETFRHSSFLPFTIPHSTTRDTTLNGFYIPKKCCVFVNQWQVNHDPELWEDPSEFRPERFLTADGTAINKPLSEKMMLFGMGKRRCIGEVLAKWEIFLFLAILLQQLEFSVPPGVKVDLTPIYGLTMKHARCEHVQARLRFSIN

[37] = Oral bioavailability in Sprague-Dawley rat at 10 mg/kg administered as bolus dose by LC-MS/MS analysis; format: ADME, organism-based; conditions: in vivo
[38] = test system: TK6; experiment: Genotoxicity in human TK6 cells at 80 ug/ml after 24 hrs in absence of rat liver S9 fraction by micronucleus assay; format: toxicity, cell-based; conditions: tk6, 24 h
[39] = molecular target: Cytochrome P450 3A4 (Homo sapiens, UniProt P08684); experiment: Reversible inhibition of recombinant human CYP3A4 by fluorescence-based assay; format: ADME
Sequence of Cytochrome P450 3A4 (P08684 whole entry): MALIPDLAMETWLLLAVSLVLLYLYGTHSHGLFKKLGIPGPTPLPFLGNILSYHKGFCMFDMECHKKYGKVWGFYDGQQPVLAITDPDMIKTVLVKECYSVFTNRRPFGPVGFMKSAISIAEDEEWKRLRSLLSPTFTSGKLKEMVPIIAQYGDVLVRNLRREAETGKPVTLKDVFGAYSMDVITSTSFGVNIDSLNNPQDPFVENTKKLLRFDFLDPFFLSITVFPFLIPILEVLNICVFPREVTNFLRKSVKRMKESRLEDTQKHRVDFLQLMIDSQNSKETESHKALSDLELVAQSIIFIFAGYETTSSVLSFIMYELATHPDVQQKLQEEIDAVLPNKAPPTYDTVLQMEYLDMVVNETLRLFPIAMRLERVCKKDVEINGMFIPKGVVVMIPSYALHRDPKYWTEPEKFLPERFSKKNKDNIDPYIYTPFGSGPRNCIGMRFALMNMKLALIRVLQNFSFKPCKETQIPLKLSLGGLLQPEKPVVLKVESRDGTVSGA

[40] = molecular target: Cytochrome P450 2C9 (Homo sapiens, UniProt P11712); experiment: Reversible inhibition of recombinant human CYP2C9 by fluorescence-based assay; format: ADME
Sequence of Cytochrome P450 2C9 (P11712 whole entry): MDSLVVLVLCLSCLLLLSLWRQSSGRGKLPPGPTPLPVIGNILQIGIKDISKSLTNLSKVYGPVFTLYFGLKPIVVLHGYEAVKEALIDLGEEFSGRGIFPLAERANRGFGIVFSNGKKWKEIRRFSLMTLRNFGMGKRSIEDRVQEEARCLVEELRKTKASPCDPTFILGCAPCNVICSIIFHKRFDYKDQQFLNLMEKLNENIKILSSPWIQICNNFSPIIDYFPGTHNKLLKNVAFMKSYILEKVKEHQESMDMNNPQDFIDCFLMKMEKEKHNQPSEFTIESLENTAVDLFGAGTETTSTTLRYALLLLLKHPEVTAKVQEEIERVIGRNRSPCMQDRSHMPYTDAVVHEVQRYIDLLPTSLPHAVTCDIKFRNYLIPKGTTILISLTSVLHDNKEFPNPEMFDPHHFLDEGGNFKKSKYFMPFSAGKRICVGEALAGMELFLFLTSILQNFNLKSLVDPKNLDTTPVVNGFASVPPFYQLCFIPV

With `C[C@]1(c2cc(NC(=O)c3ccc(C#N)cn3)ccc2F)N=C(N)CO[C@H]1C(F)(F)F` the LOAEL [1] was 11500 ng/mL, the NOAEL [1] was 5235 ng/mL and the fLOAEL [1] was 10.1 µM. The fNOAEL [1] was 4.6 µM, the Activity [2] was “Non-Toxic” and the inhibition at 5 min, 3 µM [3] was 22%. For the same molecule, the IC50 [4] was > 30 µM, the Activity [5] was “Non-Toxic” and the selectivity ratio [6] was 71. For the same molecule, the Activity [7] was “Toxic”, the half-life [8] was 3.9 h and the AUC at 24 h [9] was 13700 ng·h/mL. For the same molecule, the Activity [10] was “Toxic”, the Kp [11] was 19 and the inhibition [12] was 91%. The Activity [13] was “Non-Toxic”, the Activity [14] was “Non-Toxic” and the Activity [15] was “Non-Toxic”. The Activity [16] was “Non-Toxic”, the Activity [17] was “Non-Toxic” and the AUC at 24 h [18] was 38800 ng·h/mL. The Activity [19] was “Non-Toxic”, the Cmax [20] was 333 nM and the Activity [21] was “Non-Toxic”. The metabolised at 0.25 h, 1 µM [22] was 2%, the Activity [23] was “Non-Toxic” and the AUC(0-inf) [24] was 15400 ng·h/mL. The fraction unbound at 4.5 h, 5 µM [25] was 0.36, the Cmax [26] was 160 nM and the Activity [27] was “Non-Toxic”. For the same molecule, the “fold change (FC)” value [28] was 2, the Activity [29] was “Non-Toxic” and the CL [30] was 25%. For the same molecule, the Ratio [31] was 3, the Tmax [32] was 2 h and the Vd [33] was 11 L/kg. For the same molecule, the IC50 [34] was 0.0222 µM, the Activity [35] was “Non-Toxic” and the IC50 [36] was > 30 µM. The bioavailability [37] was 36%, the Activity [38] was “Non-Toxic” and the IC50 [39] was > 30 µM. For the same molecule, the IC50 [40] was > 30 µM.
